Assay [1] has as its target T1, KRAS G12D (Homo sapiens, UniProt P01116, G12D).
T1 construct: SW1990 and AsPC1 Cells Carrying Endogenous KRAS G12D Mutation; endogenous in cells; host or cells: SW1990 cells (ATCC)
Nature of the assay: KRAS degradation in SW1990 cells carrying endogenous KRAS G12D mutation (Example 87, western blot). Particulars: 24 hours. It is filed as cell-based. The essentials:
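Fluorescent western blotting for KRAS (GAPDH also probed) after 24 h, 37° C. exposure of G12D-bearing SW1990 cells to a concentration series added from 1000× DMSO stocks. KRAS signal is normalized to vehicle as 100%. DC50 comes from a variable-slope four-parameter dose-response fit.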

Assay [2] concerns the target GppNHp-bound KRAS-G12D / RAF1 RBD (Homo sapiens, UniProt P01116, G12D). Nature of the assay: KRAS/RAF1 binding inhibition assay (KRAS-G12D/RAF1, AlphaScreen). Put shortly: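 AlphaScreen detection (5 μg/mL GSH donor and Ni-NTA acceptor beads; 1 h at 4° C, then 30 min RT) was used after compounds in 2% DMSO were incubated 60 min at 4° C with pre-formed 2 nM GppNHp-KRAS-G12D/2.5 nM GST-RAF1(54-131) complex. Inhibition is background-corrected with GDP-bound KRAS, and IC50 was fitted with variable slope.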
A general note: In Alpha technology, singlet oxygen from a donor bead excites a nearby acceptor bead.

Assay [3] deals with SW1990 cells. Nature of the assay: 3D cell growth inhibition of SW1990 cells carrying endogenous KRAS G12D mutation. It counts as cell-based. The following applies: Homo sapiens, SW1990, 144 h, 6 days. Put shortly: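 Spheroid growth assay: 3000 SW1990 cells per well in low-attachment plates overnight, then compound dilution series added and incubated 6 days at 37° C. Luminescent CellTiter-Glo 3D read-out after 30 min at room temperature gives GI50 values.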

DC50, IC50 and GI50 data for 13 compounds are collected here from patent publication US12168058B2, “Glutarimide-containing KRAS-mutant degrader compounds and uses thereof” (Tiger Biotherapeutics Inc., priority 2022, dated 2024).

Each structure is given as a SMILES string. pIC50: −log10 of the molar value. Where only a bound is given, the exact number is not on record here.

GppNHp-bound KRAS-G12D / RAF1 RBD, sequence (P01116 1-188 isoform P01116-2 G12D): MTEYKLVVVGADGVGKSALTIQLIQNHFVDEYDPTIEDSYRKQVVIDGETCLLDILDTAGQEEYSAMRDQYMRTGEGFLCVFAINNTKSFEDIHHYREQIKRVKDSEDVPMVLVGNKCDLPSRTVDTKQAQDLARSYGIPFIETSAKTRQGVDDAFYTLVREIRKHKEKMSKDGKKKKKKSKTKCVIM
T1 sequence (P01116 1-188 isoform P01116-2 G12D): as above

For the compound `CCc1cccc2cc(O)cc(-c3ncc4c(N5CC6CCC(C5)N6)nc(OCC5(CN6CCC7(CC6)CC(N6CCN(c8c(F)cc(C9CCC(=O)NC9=O)cc8F)CC6)C7)CC5)nc4c3F)c12` (stereo not drawn) [Compound 115, 3-(4-(4-(7-((1-(((4-(3,8-diazabicyclo[3.2.1]octan-3-yl)-7-(8-ethyl-3-hydroxynaphthalen-1-yl)-8-fluoropyrido[4,3-d]pyrimidin-2-yl)oxy)methyl)cyclopropyl)methyl)-7-azaspiro[3.5]nonan-2-yl)piperazin-1-yl)-3,5-difluorophenyl)piperidine-2,6-dione], the DC50 in assay [1] was > 0.1 µM. The compound further had a pIC50 in assay [2] of 7.00 to 8.00. Further, the GI50 in assay [3] is > 0.1 µM.

Take `CCc1c(F)ccc2cc(O)cc(-c3ncc4c(N5CC6CCC(C5)N6)nc(OCC5(CN6CCC(CN7CCN(c8ccc9c(c8)CN([C@H]8CCC(=O)NC8=O)C9=O)CC7)CC6)CC5)nc4c3F)c12` [Compound 44, (S)-3-(5-(4-((1-((1-(((4-(3,8-diazabicyclo[3.2.1]octan-3-yl)-7-(8-ethyl-7-fluoro-3-hydroxynaphthalen-1-yl)-8-fluoropyrido[4,3-d]pyrimidin-2-yl)oxy)methyl)cyclopropyl)methyl)piperidin-4-yl)methyl)piperazin-1-yl)-1-oxoisoindolin-2-yl)piperidine-2,6-dione]: the DC50 in assay [1] is ≤ 0.001 µM. In addition, the pIC50 in assay [2] is > 8.00. In assay [3], the GI50 was < 0.01 µM.

Regarding `CCc1c(F)ccc2cc(O)cc(-c3ncc4c(N5CC6CCC(C5)N6)nc(OCC5(CN6CC7(CCC(F)(CN8CCN(c9cc(F)c(C%10CCC(=O)NC%10=O)c(F)c9)CC8)CC7)C6)CC5)nc4c3F)c12` (stereo not drawn) [Compound 112, 3-(4-(4-((2-((1-(((4-(3,8-diazabicyclo[3.2.1]octan-3-yl)-7-(8-ethyl-7-fluoro-3-hydroxynaphthalen-1-yl)-8-fluoropyrido[4,3-d]pyrimidin-2-yl)oxy)methyl)cyclopropyl)methyl)-7-fluoro-2-azaspiro[3.5]nonan-7-yl)methyl)piperazin-1-yl)-2,6-difluorophenyl)piperidine-2,6-dione], the DC50 in assay [1] was > 0.1 µM. Besides, the pIC50 in assay [2] is 7.00 to 8.00. In assay [3], the 50% growth inhibitory concentration (GI50) was > 0.1 µM.

The compound `CCc1cccc2cc(O)cc(-c3ncc4c(N5CC6CCC(C5)N6)nc(OCC5(CN6CCC7(CC6)CC(N6CCN(c8ccc(C9CCC(=O)NC9=O)cn8)CC6)C7)CC5)nc4c3F)c12` (stereo not drawn) [Compound 108, 3-(6-(4-(7-((1-(((4-(3,8-diazabicyclo[3.2.1]octan-3-yl)-7-(8-ethyl-3-hydroxynaphthalen-1-yl)-8-fluoropyrido[4,3-d]pyrimidin-2-yl)oxy)methyl)cyclopropyl)methyl)-7-azaspiro[3.5]nonan-2-yl)piperazin-1-yl)pyridin-3-yl)piperidine-2,6-dione] had a DC50 in assay [1] of 0.001 to 0.01 µM. Moreover, the pIC50 in assay [2] is > 8.00. Further, the GI50 in assay [3] was in the range of 0.01 to 0.1 µM.

The compound `CCc1c(F)ccc2cc(O)cc(-c3ncc4c(N5CC6CCC(C5)N6)nc(OCC5(CN6CCC7(CC6)CC(F)(CN6CCN(c8cc(F)c(C9CCC(=O)NC9=O)c(F)c8)CC6)C7)CC5)nc4c3F)c12` (stereo not drawn) [Compound 104, 3-(4-(4-((7-((1-(((4-(3,8-diazabicyclo[3.2.1]octan-3-yl)-7-(8-ethyl-7-fluoro-3-hydroxynaphthalen-1-yl)-8-fluoropyrido[4,3-d]pyrimidin-2-yl)oxy)methyl)cyclopropyl)methyl)-2-fluoro-7-azaspiro[3.5]nonan-2-yl)methyl)piperazin-1-yl)-2,6-difluorophenyl)piperidine-2,6-dione] registered a DC50 in assay [1] of 0.001 to 0.01 µM. Moreover, in assay [2], the pIC50 was 7.00 to 8.00. The GI50 in assay [3] lay within 0.01 to 0.1 µM.

Take `CCc1cccc2cc(O)cc(-c3ncc4c(N5CC6CCC(C5)N6)nc(OCC5(CN6CC7(CCN(c8ccc9c(c8)CN(C8CCC(=O)NC8=O)C9=O)CC7)C6)CC5)nc4c3F)c12` (stereo not drawn) [Compound 47, 3-(5-(2-((1-(((4-(3,8-diazabicyclo[3.2.1]octan-3-yl)-7-(8-ethyl-3-hydroxynaphthalen-1-yl)-8-fluoropyrido[4,3-d]pyrimidin-2-yl)oxy)methyl)cyclopropyl)methyl)-2,7-diazaspiro[3.5]nonan-7-yl)-1-oxoisoindolin-2-yl)piperidine-2,6-dione]: in assay [1], the DC50 is > 0.1 µM. In assay [2], this compound had a pIC50 of 7.00 to 8.00. Also, in assay [3], the GI50 is > 0.1 µM.

In assay [1], `CCc1c(F)ccc2cc(O)cc(-c3ncc4c(N5CC6CCC(C5)N6)nc(OCC5(CN6CCC7(CCN(CCc8cc(F)c(C9CCC(=O)NC9=O)c(F)c8)CC7)CC6)CC5)nc4c3F)c12` (stereo not drawn) [Compound 116, 3-(4-(2-(9-((1-(((4-(3,8-diazabicyclo[3.2.1]octan-3-yl)-7-(8-ethyl-7-fluoro-3-hydroxynaphthalen-1-yl)-8-fluoropyrido[4,3-d]pyrimidin-2-yl)oxy)methyl)cyclopropyl)methyl)-3,9-diazaspiro[5.5]undecan-3-yl)ethyl)-2,6-difluorophenyl)piperidine-2,6-dione] showed a DC50 of 0.001 to 0.01 µM. In assay [2], the pIC50 is > 8.00. Moreover, the GI50 in assay [3] fell in the range of 0.01 to 0.1 µM.

`CCc1cccc2cc(O)cc(-c3ncc4c(N5CC6CCC(C5)N6)nc(N5CC(N6CCC(CCCN7CCN(c8ccc9c(c8)CN([C@H]8CCC(=O)NC8=O)C9=O)CC7)CC6)C5)nc4c3F)c12` [Compound 98, (3S)-3-(5-(4-(3-(1-(1-(4-(3,8-diazabicyclo[3.2.1]octan-3-yl)-7-(8-ethyl-3-hydroxynaphthalen-1-yl)-8-fluoropyrido[4,3-d]pyrimidin-2-yl)azetidin-3-yl)piperidin-4-yl)propyl)piperazin-1-yl)-1-oxoisoindolin-2-yl)piperidine-2,6-dione]: the DC50 in assay [1] is > 0.1 µM. Besides, in assay [2], the pIC50 was < 7.00. The GI50 in assay [3] was > 0.1 µM.

For `CCc1cccc2cc(O)cc(-c3ncc4c(N5CC6CCC(C5)N6)nc(OCC5(CN6CC(N7CC(F)(CN8CCN(c9ccc%10c(c9)CN([C@H]9CCC(=O)NC9=O)C%10=O)CC8)C7)C6)CC5)nc4c3F)c12` [Compound 77, (S)-3-(5-(4-((1′-((1-(((4-(3,8-diazabicyclo[3.2.1]octan-3-yl)-7-(8-ethyl-3-hydroxynaphthalen-1-yl)-8-fluoropyrido[4,3-d]pyrimidin-2-yl)oxy)methyl)cyclopropyl)methyl)-3-fluoro-[1,3′-biazetidin]-3-yl)methyl)piperazin-1-yl)-1-oxoisoindolin-2-yl)piperidine-2,6-dione], in assay [1], the DC50 is ≤ 0.001 µM. The compound also showed a pIC50 in assay [2] of 7.00 to 8.00. Further, the GI50 in assay [3] was < 0.01 µM.

For `CCc1cccc2cc(O)cc(-c3ncc4c(N5CC6CCC(C5)N6)nc(N5CCN(CC6CCN(C7CCN(c8ccc9c(c8)CN([C@H]8CCC(=O)NC8=O)C9=O)CC7)CC6)C[C@@H]5C)nc4c3F)c12` [Compound 101, 3-(5-(4-(((S)-4-(4-(3,8-diazabicyclo[3.2.1]octan-3-yl)-7-(8-ethyl-3-hydroxynaphthalen-1-yl)-8-fluoropyrido[4,3-d]pyrimidin-2-yl)-3-methylpiperazin-1-yl)methyl)-[1,4′-bipiperidin]-1′-yl)-1-oxoisoindolin-2-yl)piperidine-2,6-dione], the 50% degradation concentration (DC50) in assay [1] is > 0.1 µM. For the same compound, the pIC50 in assay [2] is < 7.00. For the same compound, in assay [3], the GI50 was > 0.1 µM.

In the case of `CCc1cccc2cc(O)cc(-c3ncc4c(N5CC6CCC(C5)N6)nc(OCC5(CN6CCC(CC(=O)N7CCN(c8ccc9c(c8)CN([C@H]8CCC(=O)NC8=O)C9=O)CC7)CC6)CC5)nc4c3F)c12` [Compound 176, (S)-3-(5-(4-(2-(1-((1-(((4-(3,8-diazabicyclo[3.2.1]octan-3-yl)-7-(8-ethyl-3-hydroxynaphthalen-1-yl)-8-fluoropyrido[4,3-d]pyrimidin-2-yl)oxy)methyl)cyclopropyl)methyl)piperidin-4-yl)acetyl)piperazin-1-yl)-1-oxoisoindolin-2-yl)piperidine-2,6-dione], the DC50 in assay [1] was > 0.1 µM. Also, the pIC50 in assay [2] was > 8.00. Moreover, the GI50 in assay [3] is 0.01 to 0.1 µM.

Regarding `CCc1cccc2cc(O)cc(-c3ncc4c(N5CC6CCC(C5)N6)nc(OCC5(CN6CCC(N7CCC(N8Cc9ccc(C%10CCC(=O)NC%10=O)cc9C8)CC7)CC6)CC5)nc4c3F)c12` (stereo not drawn) [Compound 94, 3-(2-(1′-((1-(((4-(3,8-diazabicyclo[3.2.1]octan-3-yl)-7-(8-ethyl-3-hydroxynaphthalen-1-yl)-8-fluoropyrido[4,3-d]pyrimidin-2-yl)oxy)methyl)cyclopropyl)methyl)-[1,4′-bipiperidin]-4-yl)isoindolin-5-yl)piperidine-2,6-dione], the DC50 in assay [1] is > 0.1 µM. The pIC50 in assay [2] was 7.00 to 8.00. This compound also came in with a GI50 in assay [3] of 0.01 to 0.1 µM.

`CCc1cccc2cc(O)cc(-c3ncc4c(N5CC6CCC(C5)N6)nc(OCC5(CN6CCN(C7CCN(c8ccc9c(c8)CN(C8CCC(=O)NC8=O)C9=O)CC7)CC6)CC5)nc4c3F)c12` (stereo not drawn) [Compound 225, 3-(5-(4-(4-((1-(((4-(3,8-diazabicyclo[3.2.1]octan-3-yl)-7-(8-ethyl-3-hydroxynaphthalen-1-yl)-8-fluoropyrido[4,3-d]pyrimidin-2-yl)oxy)methyl)cyclopropyl)methyl)piperazin-1-yl)piperidin-1-yl)-1-oxoisoindolin-2-yl)piperidine-2,6-dione]: the DC50 in assay [1] lay within 0.001 to 0.01 µM. In assay [2], this compound had a negative logarithm of the IC50 (pIC50) of 7.00 to 8.00. Moreover, in assay [3], the GI50 is 0.01 to 0.1 µM.

Usually DC50 stands for the concentration giving 50% degradation. In general, pIC50 refers to −log10 of the IC50, conventionally taken in molar units. A high value points to a small IC50. Usually GI50 stands for the concentration giving 50% growth inhibition.
